Assay results taken from patent US10730874B2 (Shire Human Genetic Therapies, Inc., priority 2018, dated 2020).

These compounds were tested against human activated kallikrein enzyme (plasma kallikrein) (Homo sapiens (Human), UniProt P03952) (assay: Inhibition of human activated plasma kallikrein, fluorogenic peptide substrate assay, 500 pM enzyme format). Settings: 500 pM activated kallikrein enzyme, 300 uM Pro-Phe-Arg-7-amido-4-methylcoumarin substrate, 30 min preincubation, 10 min at RT; read-out: Primary Dose Response Assay: Average EC50.
human activated kallikrein enzyme (plasma kallikrein), sequence (P03952 391-638): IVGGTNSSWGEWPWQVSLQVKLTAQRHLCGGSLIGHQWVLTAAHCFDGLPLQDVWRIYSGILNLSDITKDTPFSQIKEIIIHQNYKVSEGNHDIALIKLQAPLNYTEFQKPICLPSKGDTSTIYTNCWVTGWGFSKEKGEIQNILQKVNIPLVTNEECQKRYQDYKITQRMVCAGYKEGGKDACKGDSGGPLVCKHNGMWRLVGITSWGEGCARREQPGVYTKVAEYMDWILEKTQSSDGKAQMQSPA
human activated kallikrein enzyme (plasma kallikrein), sequence (P03952 20-390 partner): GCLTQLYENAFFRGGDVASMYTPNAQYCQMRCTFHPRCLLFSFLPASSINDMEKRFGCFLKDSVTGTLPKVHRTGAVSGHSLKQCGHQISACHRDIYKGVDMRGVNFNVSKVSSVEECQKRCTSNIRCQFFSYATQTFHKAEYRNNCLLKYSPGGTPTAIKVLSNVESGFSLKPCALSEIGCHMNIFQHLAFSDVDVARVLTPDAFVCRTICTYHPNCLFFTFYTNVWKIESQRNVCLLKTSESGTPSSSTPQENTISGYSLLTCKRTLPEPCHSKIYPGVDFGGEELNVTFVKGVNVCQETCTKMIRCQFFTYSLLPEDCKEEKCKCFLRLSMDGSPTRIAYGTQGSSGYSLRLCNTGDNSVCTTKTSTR
Format: biochemical
Protocol: Example compounds were evaluated for inhibition of the human activated kallikrein enzyme in two formats of an assay employing a fluorogenic peptide substrate. In one assay format, the concentrations of reagents were as follows: 20 mM Tris pH 7.5, 1 mM EDTA, 150 mM sodium chloride, 0.1% PEG-400, 0.1% Triton X-100, 500 pM activated kallikrein enzyme, 300 uM Pro-Phe-Arg-7-amido-4-methylcoumarin substrate. Prior to reaction initiation with substrate, enzyme and inhibitors were preincubated for 30 min at RT. After initiation with substrate, reactions were incubated for 10 min at RT and fluorescence emission at 460 nm from 380 nm excitation measured with a microplate reader. In another assay format, the concentrations of reagents were as follows: 20 mM Tris pH 7.5, 1 mM EDTA, 150 mM sodium chloride, 0.1% PEG-400, 0.1% Triton X-100, 5 pM activated kallikrein enzyme, 300 uM Pro-Phe-Arg-7-amido-4-methylcoumarin substrate. Prior to reaction initiation with substrate, enzyme and inhibitors were preincubated for 30 min at RT. After initiation with substrate, reactions were incubated for 18 h at RT and fluorescence emission at 460 nm from 380 nm excitation measured with a microplate reader.

SMILES	EC50
O=C(NCc1ncn2ccc(Cl)cc12)c1cnn(Cc2cn3c(CO)cccc3n2)c1 [Example I-62, N-((7-chloroimidazo[1,5-a]pyridin-1-yl)methyl)-1-((5-(hydroxymethyl)imidazo[1,2-a]pyridin-2-yl)methyl)-1H-pyrazole-4-carboxamide]	100 to 2000 nM
COc1cccc2nc(Cn3cc(C(=O)NCc4ncn5ccc(Cl)cc45)cn3)cn12 [Example I-63, N-((7-chloroimidazo[1,5-a]pyridin-1-yl)methyl)-1-((5-methoxyimidazo[1,2-a]pyridin-2-yl)methyl)-1H-pyrazole-4-carboxamide]	10 to 100 nM
CCc1ccn2cnc(CNC(=O)c3cnn(Cc4cn5cc(C6CC6)ccc5n4)c3)c2c1 [Example I-67, 1-((6-cyclopropylimidazo[1,2-a]pyridin-2-yl)methyl)-N-((7-ethylimidazo[1,5-a]pyridin-1-yl)methyl)-1H-pyrazole-4-carboxamide]	10 to 100 nM
O=C(NCc1ncn2ccc(Cl)cc12)c1cnn(Cc2cn3ccccc3n2)c1 [Example I-69, N-((7-chloroimidazo[1,5-a]pyridin-1-yl)methyl)-1-(imidazo[1,2-a]pyridin-2-ylmethyl)-1H-pyrazole-4-carboxamide]	100 to 2000 nM
O=C(NCc1ncn2ccc(Cl)cc12)c1nnc(Cc2cn3cc(C4CC4)ccc3n2)s1 [Example I-70, N-((7-chloroimidazo[1,5-a]pyridin-1-yl)methyl)-5-((6-cyclopropylimidazo[1,2-a]pyridin-2-yl)methyl)-1,3,4-thiadiazole-2-carboxamide]	10 to 100 nM
CCOC(=O)c1cc(C2CC2)cn2cc(Cn3cc(C(=O)NCc4ncn5ccc(Cl)cc45)cn3)nc12 [Example I-71, ethyl 2-((4-(((7-chloroimidazo[1,5-a]pyridin-1-yl)methyl)carbamoyl)-1H-pyrazol-1-yl)methyl)-6-cyclopropylimidazo[1,2-a]pyridine-8-carboxylate]	< 1 nM
O=C(NCc1ncn2ccc(Cl)cc12)c1cnn(Cc2cn3cc(C4CC4)cc(C(=O)O)c3n2)c1 [Example I-72, 2-((4-(((7-chloroimidazo[1,5-a]pyridin-1-yl)methyl)carbamoyl)-1H-pyrazol-1-yl)methyl)-6-cyclopropylimidazo[1,2-a]pyridine-8-carboxylic acid]	1 to 10 nM
CNc1cccc2nc(Cn3cc(C(=O)NCc4ncn5ccc(Cl)cc45)cn3)cn12 [Example I-77, N-((7-chloroimidazo[1,5-a]pyridin-1-yl)methyl)-1-((5-(methylamino)imidazo[1,2-a]pyridin-2-yl)methyl)-1H-pyrazole-4-carboxamide]	10 to 100 nM
O=C(NCc1ncn2ccc(Cl)cc12)c1cn(Cc2cn3cc(C4CC4)ccc3n2)nc1C1CC1 [Example I-78, N-((7-chloroimidazo[1,5-a]pyridin-1-yl)methyl)-3-cyclopropyl-1-((6-cyclopropylimidazo[1,2-a]pyridin-2-yl)methyl)-1H-pyrazole-4-carboxamide]	< 1 nM
O=C(NCc1ncn2ccc(Cl)cc12)c1cn(Cc2cn3cc(C4CC4)ccc3n2)nn1 [Example I-80, N-((7-chloroimidazo[1,5-a]pyridin-1-yl)methyl)-1-((6-cyclopropylimidazo[1,2-a]pyridin-2-yl)methyl)-1H-1,2,3-triazole-4-carboxamide]	< 1 nM
COC(=O)CCc1c(C(=O)NCc2ncn3ccc(Cl)cc23)cnn1Cc1cn2cc(C3CC3)ccc2n1 [Example I-82, methyl 3-(4-(((7-chloroimidazo[1,5-a]pyridin-1-yl)methyl)carbamoyl)-1-((6-cyclopropylimidazo[1,2-a]pyridin-2-yl)methyl)-1H-pyrazol-5-yl)propanoate]	10 to 100 nM
O=C(NCc1nc(C(F)F)n2ccc(Br)cc12)c1cnn(Cc2cn3cc(C4CC4)ccc3n2)c1 [Example I-83, N-((7-bromo-3-(difluoromethyl)imidazo[1,5-a]pyridin-1-yl)methyl)-1-((6-cyclopropylimidazo[1,2-a]pyridin-2-yl)methyl)-1H-pyrazole-4-carboxamide]	10 to 100 nM

Now from value to compound:

EC50	SMILES
1 to 10 nM	Cc1ccc2nc(Cn3cc(C(=O)NCc4ncn5ccc(Cl)cc45)cn3)cn2c1 [Example I-64, N-((7-chloroimidazo[1,5-a]pyridin-1-yl)methyl)-1-((6-methylimidazo[1,2-a]pyridin-2-yl)methyl)-1H-pyrazole-4-carboxamide]
< 1 nM	COC(=O)CCc1nn(Cc2cn3cc(C4CC4)ccc3n2)cc1C(=O)NCc1ncn2ccc(Cl)cc12 [Example I-65, methyl 3-(4-(((7-chloroimidazo[1,5-a]pyridin-1-yl)methyl)carbamoyl)-1-((6-cyclopropylimidazo[1,2-a]pyridin-2-yl)methyl)-1H-pyrazol-3-yl)propanoate]
< 1 nM	C#Cc1ccn2cnc(CNC(=O)c3cnn(Cc4cn5cc(C6CC6)ccc5n4)c3)c2c1 [Example I-66, 1-((6-cyclopropylimidazo[1,2-a]pyridin-2-yl)methyl)-N-((7-ethynylimidazo[1,5-a]pyridin-1-yl)methyl)-1H-pyrazole-4-carboxamide]
< 1 nM	O=C(NCc1ncn2ccc(Br)cc12)c1cnn(Cc2cn3nc(C4CC4)ccc3n2)c1 [Example I-68, N-((7-bromoimidazo[1,5-a]pyridin-1-yl)methyl)-1-((6-cyclopropylimidazo[1,2-b]pyridazin-2-yl)methyl)-1H-pyrazole-4-carboxamide]
< 1 nM	O=C(O)CCc1nn(Cc2cn3cc(C4CC4)ccc3n2)cc1C(=O)NCc1ncn2ccc(Cl)cc12 [Example I-73, 3-(4-(((7-chloroimidazo[1,5-a]pyridin-1-yl)methyl)carbamoyl)-1-((6-cyclopropylimidazo[1,2-a]pyridin-2-yl)methyl)-1H-pyrazol-3-yl)propanoic acid]
1 to 10 nM	CC(NC(=O)c1cnn(Cc2cn3cc(C4CC4)ccc3n2)c1)c1ncn2ccc(Br)cc12 (stereo not shown) [Example I-74, N-(1-(7-bromoimidazo[1,5-a]pyridin-1-yl)ethyl)-1-((6-cyclopropylimidazo[1,2-a]pyridin-2-yl)methyl)-1H-pyrazole-4-carboxamide]
< 1 nM	O=C(NCc1ncn2ccc(Cl)cc12)c1cnn(Cc2cn3cc(C4CC4)cc(CO)c3n2)c1 [Example I-75, N-((7-chloroimidazo[1,5-a]pyridin-1-yl)methyl)-1-((6-cyclopropyl-8-(hydroxymethyl)imidazo[1,2-a]pyridin-2-yl)methyl)-1H-pyrazole-4-carboxamide]
< 1 nM	O=C(NCc1ncn2ccc(Br)cc12)c1cnn(Cc2cn3cc(C4CC4)cnc3n2)c1 [Example I-76, N-((7-bromoimidazo[1,5-a]pyridin-1-yl)methyl)-1-((6-cyclopropylimidazo[1,2-a]pyrimidin-2-yl)methyl)-1H-pyrazole-4-carboxamide]
1 to 10 nM	C#Cc1c(C2CC2)ccc2nc(Cn3cc(C(=O)NCc4ncn5ccc(Cl)cc45)cn3)cn12 [Example I-79, N-((7-chloroimidazo[1,5-a]pyridin-1-yl)methyl)-1-((6-cyclopropyl-5-ethynylimidazo[1,2-a]pyridin-2-yl)methyl)-1H-pyrazole-4-carboxamide]
< 1 nM	COC(=O)Cc1cc(C2CC2)cn2cc(Cn3cc(C(=O)NCc4ncn5ccc(Cl)cc45)cn3)nc12 [Example I-81, methyl 2-(2-((4-(((7-chloroimidazo[1,5-a]pyridin-1-yl)methyl)carbamoyl)-1H-pyrazol-1-yl)methyl)-6-cyclopropylimidazo[1,2-a]pyridin-8-yl)acetate]
